Test results taken from patent US20070142397A2, “PHENYPIPERAZINE DERIVATIVES WITH A COMBINATION OF PARTIAL DOPAMINE-D2 RECEPTOR AGONISM AND SEROTONIN REUPTAKE INHIBITION” (SOLVAY PHARMECEUTICALS B.V., priority 2004, published 2007).
Structures can show the parent of a compound that is named as a salt. Where two headings read alike, the source gives them in different places.

What was measured:
dopamine-D2 receptors = target: T1, dopamine-D2 receptors (Rattus norvegicus, UniProt P61169); test: In vitro affinity for dopamine-D2 receptors ([3H]-spiroperidol receptor binding assay, Creese et al.)
T1 construct: labels dopamine receptors in rat pituitary and brain; from tissue; host or cells: rat brain / pituitary membranes (from the title of the cited method)
T1 sequence (P61169 whole entry): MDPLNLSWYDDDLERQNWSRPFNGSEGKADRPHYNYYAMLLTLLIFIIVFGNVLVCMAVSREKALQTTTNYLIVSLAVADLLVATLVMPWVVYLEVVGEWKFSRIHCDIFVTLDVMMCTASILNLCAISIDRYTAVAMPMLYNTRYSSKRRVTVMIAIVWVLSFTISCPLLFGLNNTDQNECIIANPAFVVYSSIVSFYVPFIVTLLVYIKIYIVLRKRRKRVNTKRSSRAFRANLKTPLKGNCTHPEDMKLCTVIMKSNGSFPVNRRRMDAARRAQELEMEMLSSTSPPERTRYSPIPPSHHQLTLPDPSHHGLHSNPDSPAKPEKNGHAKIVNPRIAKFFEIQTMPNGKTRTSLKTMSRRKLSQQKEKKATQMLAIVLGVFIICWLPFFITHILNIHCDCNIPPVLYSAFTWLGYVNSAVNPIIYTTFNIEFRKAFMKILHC
Experimental: In Vitro Affinity for Dopamine-D2 Receptors
Affinity of the compounds for dopamine-D2 receptors was determined using the receptor binding assay described by I. Creese, R. Schneider and S. H. Snyder: “[^3H]-Spiroperidol labels dopamine receptors in rat pituitary and brain”, Eur. J. Pharmacol., 46, 377-381, 1977.
(§1) The affinity of the compounds of the invention for dopamine-D2 receptors and serotonine reuptake sites was determined as described above. From the binding affinity measured for a given compound of formula (1), one can estimate a theoretical lowest effective dose. At a concentration of the compound equal to twice the measured Ki-value, 100% of the receptors likely will be occupied by the compound. Converting that concentration to mg of compound per kg of patient yields a theoretical lowest effective dose, assuming ideal bioavailability. Pharmacokinetic, pharmacodynamic, and other considerations may alter the dose actually administered to a higher or lower value. The dosage expediently administered is 0.001-1000 mg/kg, preferably 0.1-100 mg/kg of patient's bodyweight.

serotonin reuptake sites = target: T2, serotonin reuptake sites (Rattus norvegicus, UniProt P31652); test: In vitro affinity for serotonin reuptake sites ([3H]-paroxetine binding assay, Habert et al.)
T2 construct: from tissue; host or cells: rat cortical membranes (from the title of the cited method)
T2 sequence (P31652 whole entry): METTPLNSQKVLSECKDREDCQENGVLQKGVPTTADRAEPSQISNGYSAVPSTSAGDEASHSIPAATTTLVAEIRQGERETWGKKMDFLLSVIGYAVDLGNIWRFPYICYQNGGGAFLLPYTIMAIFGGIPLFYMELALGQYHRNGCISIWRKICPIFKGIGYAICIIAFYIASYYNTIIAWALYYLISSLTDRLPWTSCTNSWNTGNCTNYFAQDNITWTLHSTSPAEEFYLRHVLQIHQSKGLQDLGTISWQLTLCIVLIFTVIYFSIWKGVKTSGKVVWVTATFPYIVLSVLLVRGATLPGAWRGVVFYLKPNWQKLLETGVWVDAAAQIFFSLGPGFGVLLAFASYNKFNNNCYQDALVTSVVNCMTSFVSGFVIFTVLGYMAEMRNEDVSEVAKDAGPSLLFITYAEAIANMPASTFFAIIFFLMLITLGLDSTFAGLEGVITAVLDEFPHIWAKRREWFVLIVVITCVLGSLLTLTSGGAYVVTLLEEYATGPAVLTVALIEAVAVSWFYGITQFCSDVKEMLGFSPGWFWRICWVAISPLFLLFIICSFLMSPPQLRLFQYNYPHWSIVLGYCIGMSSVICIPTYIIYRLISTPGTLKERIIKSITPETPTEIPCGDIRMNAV
Experimental: In Vitro Affinity for Serotonin Reuptake Sites
Affinity of the compounds for serotonin reuptake sites was determined using the receptor binding assay described by E. Habert et al.,: “Characterisation of [^3H]-paroxetine binding to rat cortical membranes”, Eur. J. Pharmacol., 118, 107-114, 1985.
as §1

[1] = target: T3, Human dopamine D2,L receptors (Homo sapiens, UniProt P14416); test: Inhibition of forskolin-induced [3H]-cAMP accumulation in CHO-K1 cells; type: cell-based; conditions: Cloned human dopamine D2,L receptors, full agonist ε=1, full antagonist ε=0
T3 construct: host or cells: CHO-K1
T3 sequence (P14416 whole entry): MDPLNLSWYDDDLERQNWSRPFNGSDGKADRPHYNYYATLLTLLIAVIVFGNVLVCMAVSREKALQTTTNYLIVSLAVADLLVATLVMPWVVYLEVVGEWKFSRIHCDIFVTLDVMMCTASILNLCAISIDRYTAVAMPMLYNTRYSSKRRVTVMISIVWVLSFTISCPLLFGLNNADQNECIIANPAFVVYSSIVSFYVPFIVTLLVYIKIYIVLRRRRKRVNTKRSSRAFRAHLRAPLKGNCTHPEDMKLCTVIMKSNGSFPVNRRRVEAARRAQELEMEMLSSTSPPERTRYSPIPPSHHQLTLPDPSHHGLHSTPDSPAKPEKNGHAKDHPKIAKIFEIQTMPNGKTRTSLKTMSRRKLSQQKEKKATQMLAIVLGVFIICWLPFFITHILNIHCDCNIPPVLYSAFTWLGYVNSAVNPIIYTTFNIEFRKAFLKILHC
Experimental: Inhibition of Forskolin-Induced [^3H]-cAMP Accumulation
The in vitro functional activity at dopamine-D2 receptors, including the intrinsic activity (ε) of the compounds of the invention was measured by their ability to inhibit forskolin-induced [^3H]-cAMP accumulation.
Human dopamine D2,L receptors were Cloned in fibroblast cell line CHO-K1 cells and obtained from Dr. Grandy, Vollum Institute, Portland, Oreg., USA. CHO cells were grown in a Dulbecco's modified Eagle's medium (DMEM) culture medium, supplemented with 10% heat-inactivated fetal calf serum, 2 mM glutamine, 1 mM pyruvate, 5000 units/ml penicillin, 5000 μg/ml streptomycin and 200 μg/ml G-418 at 37° C. in 93% air/7% CO2. For incubation with test compounds, confluent cultures grown in 24 wells plates were used. Each condition or substance was routinely tested in quadruplicate. Cells were loaded with 1 μci [^3H]-adenine in 0.5 ml medium/well. After 2 hours, cultures were washed with 0.5 ml PBS containing 1 mM of the phospho-diesterase inhibitor isobutylmethylxanthine (IBMX) and incubated for 20 min with 0.5 ml PBS containing 1 mM IBMX and forskolin with or without test compound. After aspiration the reaction was stopped with 1 ml trichloroacetic acid 5% (w/v). […] 0.8 ml Extract was passed over Dowex (50WX-4 200-400 mesh) and aluminumoxide columns, eluted with water and 0.1M imidazole (pH=7.5). Eluates were mixed with 7 ml Insta-gel and radioactivity was counted with a liquid scintillation counter. The conversion of [^3H]-ATP into [^3H]-cAMP was expressed as the ratio in percentage radioactivity in the cAMP fraction as compared to combined radioactivity in both cAMP and ATP fractions, and basal activity was subtracted to correct for spontaneous activity.
Test compounds were obtained as 10 mM stock solutions in 100% DMSO, and diluted in PBS/IBMX to final concentrations. Typically, compounds were used in concentrations that ranged from 10^−10M to 10^−5M. From quadruplicate data counts, the mean was taken as an estimate for drug-induced, receptor-mediated effects at specified second messenger accumulation, expressed as percentage of control values (forskolin-stimulated cAMP accumulation, subtracted by basal activity). By using the non-linear curve-fitting program INPLOT or the Excel-add-in XL-Fit, mean values were plotted against drug concentration (in molar) and a sigmoid curve (four-parameter logistic curve) was constructed. The maximal forskolin-induced stimulated conversion is taken as maximum value and the maximal inhibition (usually at drug concentrations 10^−6 M or 10^−5 M) as minimum and these values were fixed during the fitting process. Thus, concentrations of the compound, causing 50% of the maximally obtained inhibition of forskolin-induced cAMP accumulation (EC50), are averaged over several experiments and presented as mean pEC50±SEM. Antagonist potency is assessed by co-incubating cells with a fixed agonist concentration and specified antagonist concentrations. Curve fitting procedures are identical to those used for estimating EC50 values. Thus IC50 values, i.e. the concentration that is able to achieve 50% of maximal antagonism that can be achieved by this compound. IC50 values are corrected using a Cheng-Prussoff equation, correcting it for agonist concentration and EC50 values that is obtained in the same experiment. Thus, Kb=IC50/(1+[agonist]/EC50, agonist).The corresponding pA2 value is −log (Kb). Concentration-response curve fitting allows estimation of pEC50 values and of maximal achievable effect (intrinsic activity or efficacy (ε). A full receptor agonist has ε=1, a full receptor antagonist has ε=0, and a partial receptor agonist has an intermediate intrinsic activity.

[2] = receptor binding, read-out: Dopamine-D2 binding pKi (converted)
[3] = receptor binding, read-out: 5-HT reuptake binding pKi (converted)

melting point	Ki (dopamine-D2 receptors; [2]) [nM]	Ki (serotonin reuptake sites; [3]) [nM]	Dopamine-D2 cAMP accum ∈ (intrinsic activity) [1]	SMILES	Ki (dopamine-D2 receptors) [nM]	Ki (serotonin reuptake sites) [nM]
270 to 275 °C				C[C@@H]1CN(c2cccc3[nH]c(=O)oc23)C[C@H](C)N1CCCc1c[nH]c2ccc(F)cc12 (as salt: HCl) [compound 1]		
207 to 209 °C				CC(CCc1c[nH]c2ccc(F)cc12)N1CCN(c2cccc3c2oc(=O)n3C)CC1 (centres unmarked) (as salt: HCl) [compound 2]		
100 to 140 °C (dec.)				CC(CCN1CCN(c2cccc3c2oc(=O)n3C)CC1)c1c[nH]c2ccc(F)cc12 (centres unmarked) (as salt: HCl) [compound 3]		
> 225 °C (dec.)				Cn1cc(CCCN2CCN(c3cccc4c3oc(=O)n4C)CC2)c2cc(F)ccc21 (as salt: HCl) [compound 8]		
254 to 256 °C				Cn1c(=O)oc2c(N3CCN(CCCCc4c[nH]c5ccc(F)cc45)CC3)cccc21 (as salt: HCl) [compound 11]		
213 to 215 °C				Cn1c(=O)oc2c(N3CCN(CCCCc4c[nH]c5ccc(C#N)cc45)CC3)cccc21 (as salt: HCl) [compound 12]		
246 to 249 °C				Cn1c(=O)oc2c(N3CCN(CCCc4c[nH]c5ccc(F)cc45)CC3)cc(F)cc21 (as salt: HCl) [compound 15]		
100 to 140 °C				CCn1c(=O)oc2c(N3CCN(CCCc4c[nH]c5ccc(F)cc45)CC3)cccc21 (as salt: HCl) [compound 16]		
	20	5.01	0.13	C[C@@H]1CN(c2cccc3[nH]c(=O)oc23)C[C@H](C)N1CCCc1c[nH]c2ccc(F)cc12 [compound 1]		
	158	1		CC(CCc1c[nH]c2ccc(F)cc12)N1CCN(c2cccc3c2oc(=O)n3C)CC1 (centres unmarked) [compound 2]		
	100	0.794	0.43	CC(CCN1CCN(c2cccc3c2oc(=O)n3C)CC1)c1c[nH]c2ccc(F)cc12 (centres unmarked) [compound 3]		
166 to 168 °C	7.94	2.51	0.22	CC(Cc1c[nH]c2ccc(F)cc12)CN1CCN(c2cccc3c2oc(=O)n3C)CC1 (centres unmarked) [compound 4]		
159 to 162 °C			0.52	Cc1cc(Cl)cc2c(CCCN3CCN(c4cccc5c4oc(=O)n5C)CC3)c[nH]c12 [compound 6]		
140 to 142 °C	200	2.51	0.15	Cn1cc(CCCN2CCN(c3cccc4c3oc(=O)n4C)CC2)c2cc(Cl)ccc21 [compound 7]		
	31.6	> 10	0.44	Cn1cc(CCCN2CCN(c3cccc4c3oc(=O)n4C)CC2)c2cc(F)ccc21 [compound 8]		
135 to 137 °C	79.4	7.94	0.12	Cn1c(=O)oc2c(N3CCN(CCCc4c[nH]c5ccc(F)cc45)CC3)cccc21 [compound 9]		
151 to 152 °C	126	3.98	0.66	Cn1c(=O)oc2c(N3CCN(CCCc4c[nH]c5ccc(C#N)cc45)CC3)cccc21 [compound 10]		
	25.1	> 10	0.72	Cn1c(=O)oc2c(N3CCN(CCCCc4c[nH]c5ccc(F)cc45)CC3)cccc21 [compound 11]		
	7.94	< 1	0.75	Cn1c(=O)oc2c(N3CCN(CCCCc4c[nH]c5ccc(C#N)cc45)CC3)cccc21 [compound 12]		
	79.4	0.316		Cn1c(=O)oc2c(N3CCN(CCCc4c[nH]c5ccc(F)cc45)CC3)cc(F)cc21 [compound 15]		
	39.8	< 1	0.15	CCn1c(=O)oc2c(N3CCN(CCCc4c[nH]c5ccc(F)cc45)CC3)cccc21 [compound 16]		
238 to 240 °C (dec.)	15.8	5.01	0.32	Fc1ccc2[nH]cc(CCCN3CCN(c4cccc5[nH]c(=S)oc45)CC3)c2c1 [compound 17]		

SMILES	melting point	Ki (dopamine-D2 receptors; [2]) [nM]	Ki (serotonin reuptake sites; [3]) [nM]	Dopamine-D2 cAMP accum ∈ (intrinsic activity) [1]	Ki (dopamine-D2 receptors) [nM]	Ki (serotonin reuptake sites) [nM]
Cn1c(=O)oc2c(N3CCN(CCc4c[nH]c5ccc(F)cc45)CC3)cccc21 [compound 13]	198 to 200 °C			0.22	3.98	3.16
